# Tested on: rhizogenic calli derived from leaf explants
# Assay: adventitious shoot bud formation on rhizogenic calli derived from tea leaf explants
# Type: cell-based, Camellia sinensis
# Conditions: rhizogenic calli transferred to auxin free MS medium with 0.5 to 8 mg/l 6 Benzyl amino purine
# Procedure: iv) For adventitious shoot bud formation, the rhizogenic callus cultures obtained from step (iii) were transferred to (0.8%) agar solidified basal MS medium supplemented with 6 Benzyl amino purine (0.5 to 8.0 mg/l) and 3% sucrose.
# After 4-10 weeks, the rhizogenic callus was transferred to (0.8%) agar solidified basal MS medium supplemented with 3% sucrose and 0.5 to 8.0 mg/l 6 Benzyl amino purine for adventitious shoot bud formation.
smiles,measurement,value
c1ccc(CNc2ncnc3nc[nH]c23)cc1 [6 Benzyl amino purine],adventitious shoot bud development,more than 30%
same,explants responding (leaf explant response),~100%

# Reference: patent publication US6599743B2, “Method for microproduction of tea plants from leaf explants” (Council of Scientific & Industrial Research, priority 2001, dated 2003)
